What was measured:
Type in all cases: cell-based, human
[1] = test system: GFP-expressing MCF-7 control cells; assay: Colony forming assay after 4OHTAM treatment, GFP control; conditions: 7.5 µM of 4OHTAM, 14 days treatment
Protocol: (§1) Colony Forming Assay: five hundred cells were plated per 60 mm plate and allowed to recover overnight. […] Treatment continued for 14 days with media replacement every two days; then cells were allowed to recover for two weeks, fixed with alcohol and stained with crystal violet (2% w/v). Colonies (over 150 cells per group) were counted. Experiments were done in triplicate.
(§2) Resistance was determined by colony-forming assay as described in Materials and Methods: plates were stained, and colonies were counted (FIG. 2B); results of the experiment were plotted (FIG. 2C). […] In heterogeneous populations the level of resistance is lower than in single-cell clones (presence of cells without inserts, different levels of expression, etc), so resistance induced by selected cDNAs in individual cells can be much higher. As selected cDNAs induced resistance to 4OHTAM, they were considered to be resistance-inducing genes (RIGs).

MCF-7 cells [2] = assay: Apoptosis check: propidium iodide DNA content (FACS) and DNA ladder
Protocol: Cell staining. Propidium iodide (DNA content): cells were permeabilized with cold EtOH, incubated with propidium iodide/RNase staining buffer (BD Bioscience, Calif.) for 15 min at room temperature, and analyzed by flow cytometry.
(§3) Flow Cytometry was performed using a Beckman Coulter Epics XL-MCL (Beckman, Fla.) with System II v. 3.0 software and CYAN (DakoCytomation, Colo.) and Summit v. 3.3 software.

[3] = test system: MCF-7 cells infected with cDNA inserts B4, B6, D10, E5; assay: Colony forming assay after 4OHTAM treatment, cDNA (RIG)-containing populations
Protocol: as §1, §2

[4] = test system: B6-containing MCF-7 cells; assay: Mitochondrial mass, MitoFluor 589 staining, flow cytometry; conditions: 4OHTAM for 72 hr
Protocol: MitoTracker Red CMXRos (mitochondrial membrane potential) and MitoFluor 589 (mitochondrial mass detection): both dyes were obtained from Molecular Probes, Calif., and added to cells (250 nM final concentration) for 25 min at 37° C. in the CO2 incubator. Cells were then trypsinized and analyzed by flow cytometry or by fluorescent microscope.
as §3
The fate of mitochondria was also examined in experiments assessing mitochondrial activity (FIG. 7C). […] The intracellular content of this organelle on a per cell basis remains fairly constant with only insignificant fluctuations (FIG. 7B), indicating a tight control of the number of mitochondria per cell. 1S A population of B6-containing cells treated with 4OHTAM for 72 hr contains approximately 30% of cells with reduced mitochondrial content (67% have normal mitochondrial content), which is close to the distribution of parental MCF-7 cells treated for 48 hr (FIG. 7B). At the same two timepoints mitochondrial activity distributions are vastly different: a separate low-activity peak for MCF-7 and a barely noticeable asymmetry (“shoulder”) for B6-cells (FIG. 7C). The present invention is not limited to a particular mechanism. […]

MCF-7 cells [5] = assay: Cell growth with 4OHTAM; set-up: cell growth: dose or concentration left out as unconfirmed
Protocol: Cells: MCF-7 (ATCC: HTB-22) cells were grown in Dulbecco's Modified Eagle's medium, 2 mM glutamine, 0.1 mM non-essential amino acids, 10 units/ml of penicillin, 10 μg/ml of streptomycin (all—Invitrogen, Calif.), supplemented with 10% fetal bovine serum (HyClone, Utah), 6 μg/ml of insulin (Sigma, Mo.), 30 μg/ml of fungin, and 10 μg/ml of plasmocin (both—InvivoGen, Calif.). 4-Hydroxytamoxifen (Sigma, Mo.) was used as 10 mM stock solution in ethanol and stored at −20° C.
To gain a better understanding of changes induced by the RIGs, cell growth of RIGs-expressing populations was evaluated with and without 4OHTAM (FIG. 3). In drug-free media the proliferation rate of the B4 RIG-expressing cells was at least equal to parental MCF-7 cells or GFP-expressing control, while for B6, D10 and E5 the proliferation rate was higher (FIG. 3A). […] It is contemplated that cessation of growth for parental and control cells reflects terminal damage and initial stages of cellular demise, whereas for RIG E5-expressing cells cessation of growth is a protective response to drug exposure.

4-Hydroxytamoxifen [4OHTAM]
survival of GFP-expressing control, colony formation assay [1]: > 10%
DNA fragmentation pattern (DNA ladder) (MCF-7 cells [2]; genomic DNA of 4OHTAM-treated cells): no characteristic DNA fragmentation pattern (DNA ladder) was detected
apoptotic sub-G1 peak in FACS profiles (MCF-7 cells [2]; up to 20 μM 4OHTAM): No evidence was found of a characteristic sub-G1 peak
resistance of cDNA-expressing cells relative to control (EGFP-only) cells ([3]; 7.5 μM 4OHTAM, colony-forming assay): five-six times more resistant
survival of populations, colony formation assay ([3]; cDNA-containing populations, 7.5 µM of 4OHTAM, 14 days treatment): ~65%
cells with normal mitochondrial content [4]: 67%
cells with reduced mitochondrial content [4]: approximately 30%
cell proliferation (MCF-7 cells [5]; 10 mM 4OHTAM, MCF-7 cells): blocked
cell growth (MCF-7 cells [5]; RIGs-containing and parental cells): inhibited

Source: US20060150260A1, “Genes related to drug resistance” (Northwestern University, priority 2004, published 2006)
